Several values for one entry are separate records, joined by “and”; a condition that tells them apart may be missing. Equal entries are not always repeated. Toxic doses and inconclusive results are not listed. Rule as the data show it: active = T/C of 150% or more; inactive = T/C below 125%.
Tested on: L1210 leukemia ip in BDF1 mice, survival T/C
Assay: NCI In Vivo Anticancer Drug Screen. Data for tumor model L1210 Leukemia (intraperitoneal) in B6D2F1 (BDF1) mice
Conditions: endpoint: mean survival time, higher = longer survival
How it was run: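 In this screen, tumor-bearing mice given compound are compared to those given vehicle, and their survival values are reported as a treated-to-control quotient.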

[1] = dose: 100.0 mg/kg/injection, schedule: Q01DX001 (ip), vehicle: carboxymethylcellulose (CMC)
[2] = dose: 200.0 mg/kg/injection, schedule: Q01DX001 (ip), vehicle: carboxymethylcellulose (CMC)
[3] = dose: 400.0 mg/kg/injection, schedule: Q01DX001 (ip), vehicle: carboxymethylcellulose (CMC)
[4] = dose: 100.0 mg/kg/injection, schedule: Q01DX009 (ip), vehicle: saline
[5] = dose: 200.0 mg/kg/injection, schedule: Q01DX009 (ip), vehicle: saline
[6] = dose: 400.0 mg/kg/injection, schedule: Q01DX009 (ip), vehicle: saline

Measured: T/C

COc1ccc(/C=C/c2c3cc(OC)c(OC)cc3cc3c4cc(OC)c(OC)cc4cc[n+]23)cc1OC
inactive: [1] 93 % of control and 108 % of control | dose: 100.0 mg/kg/injection, schedule: Q04DX002 (ip), vehicle: carboxymethylcellulose (CMC) 96 % of control and 89 % of control | dose: 100.0 mg/kg/injection, schedule: Q04DX003 (ip), vehicle: carboxymethylcellulose (CMC) 97 % of control | [2] 97 % of control and 100 % of control | dose: 200.0 mg/kg/injection, schedule: Q04DX002 (ip), vehicle: carboxymethylcellulose (CMC) 100 % of control and 87 % of control | dose: 200.0 mg/kg/injection, schedule: Q04DX003 (ip), vehicle: carboxymethylcellulose (CMC) 92 % of control | [3] 102 % of control and 90 % of control | dose: 400.0 mg/kg/injection, schedule: Q04DX002 (ip), vehicle: carboxymethylcellulose (CMC) 86 % of control and 92 % of control | dose: 400.0 mg/kg/injection, schedule: Q04DX003 (ip), vehicle: carboxymethylcellulose (CMC) 101 % of control

COc1ccc(CO/N=C2/CC(NOCc3ccc(OC)cc3)NC(=O)N2)cc1 (centres undefined)
inactive: dose: 100.0 mg/kg/injection, schedule: Q04DX003 (ip), vehicle: saline 90 % of control | dose: 200.0 mg/kg/injection, schedule: Q04DX003 (ip), vehicle: saline 90 % of control | dose: 400.0 mg/kg/injection, schedule: Q04DX003 (ip), vehicle: saline 86 % of control

CCC(=O)ONO
inactive: dose: 50.0 mg/kg/injection, schedule: Q01DX009 (ip), vehicle: saline 94 % of control | [4] 102 % of control | [5] 94 % of control

O=C(c1ccccc1)C1CC1(C(=O)c1ccccc1)c1ccccc1 (centres undefined)
inactive: dose: 100.0 mg/kg/injection, schedule: Q01DX001 (ip), vehicle: saline with Tween-80 103 % of control | dose: 200.0 mg/kg/injection, schedule: Q01DX001 (ip), vehicle: saline with Tween-80 103 % of control | dose: 400.0 mg/kg/injection, schedule: Q01DX001 (ip), vehicle: saline with Tween-80 88 % of control

O=C1NC(=O)C2C3C=CC(O3)C12 (centres undefined)
inactive: [4] 106 % of control | [5] 95 % of control | [6] 97 % of control

COC(=O)C1=C(C(=O)OC)C2CCC1O2
inactive: [4] 112 % of control | dose: 100.0 mg/kg/injection, schedule: Q04DX002 (ip), vehicle: saline with Tween-80 105 % of control | [5] 106 % of control | dose: 200.0 mg/kg/injection, schedule: Q04DX002 (ip), vehicle: saline with Tween-80 101 % of control | [6] 95 % of control | dose: 400.0 mg/kg/injection, schedule: Q04DX002 (ip), vehicle: saline with Tween-80 94 % of control

O=C(CC(CC(=O)c1ccccc1)c1ccco1)c1ccccc1
inactive: dose: 100.0 mg/kg/injection, schedule: Q01DX009 (ip), vehicle: Klucel (hydroxypropylcellulose) (HPC) 90 % of control | dose: 100.0 mg/kg/injection, schedule: Q04DX003 (ip), vehicle: Klucel (hydroxypropylcellulose) (HPC) 94 % of control | dose: 200.0 mg/kg/injection, schedule: Q01DX009 (ip), vehicle: Klucel (hydroxypropylcellulose) (HPC) 94 % of control | dose: 200.0 mg/kg/injection, schedule: Q04DX003 (ip), vehicle: Klucel (hydroxypropylcellulose) (HPC) 101 % of control | dose: 400.0 mg/kg/injection, schedule: Q01DX009 (ip), vehicle: Klucel (hydroxypropylcellulose) (HPC) 86 % of control | dose: 400.0 mg/kg/injection, schedule: Q04DX003 (ip), vehicle: Klucel (hydroxypropylcellulose) (HPC) 92 % of control

CCOC(=O)C(C(C)=O)C(c1ccc(O)cc1)C(C(C)=O)C(=O)OCC (centres undefined)
inactive: dose: 100.0 mg/kg/injection, schedule: Q01DX001 (ip), vehicle: saline 93 % of control | dose: 200.0 mg/kg/injection, schedule: Q01DX001 (ip), vehicle: saline 86 % of control | dose: 400.0 mg/kg/injection, schedule: Q01DX001 (ip), vehicle: saline 87 % of control

CCOC(=O)c1cc(N/N=C2/CCCNC2=O)c[nH]1
inactive: [1] 99 % of control | [2] 103 % of control | [3] 94 % of control

CCCCCCCCP(=O)(CCCC)CCCC
inactive: dose: 100.0 mg/kg/injection, schedule: Q04DX003 (ip), vehicle: saline with Tween-80 96 % of control | dose: 200.0 mg/kg/injection, schedule: Q04DX003 (ip), vehicle: saline with Tween-80 107 % of control

Nc1cccc2c1C(=O)c1cc(Cl)c(Cl)cc1C2=O
inactive: dose: 50.0 mg/kg/injection, schedule: Q01DX009 (ip), vehicle: saline with Tween-80 104 % of control | dose: 100.0 mg/kg/injection, schedule: Q01DX009 (ip), vehicle: saline with Tween-80 97 % of control | dose: 200.0 mg/kg/injection, schedule: Q01DX009 (ip), vehicle: saline with Tween-80 89 % of control

From PubChem BioAssay AID248 (DTP/NCI, 2004)
